{
  "source": "patent US20220170028A1",
  "about": "“NOVEL INTERLEUKIN-2 VARIANTS AND BIFUNCTIONAL FUSION MOLECULES THEREOF” (Cugene Inc, priority 2019, published 2022)",
  "key": {"[1]": {"test_system": "STAT5 phosphorylation in NK cells", "experiment": "STAT5 phosphorylation in CD56+ NK cells, human PBMC", "format": "cell-based", "description": "The Stat5 phosphorylation activity on other responder cells than CD4+ T cell subsets, including CD8+T and NK, by P-0511 was compared to P-0531, the S125I equivalent of wild-type P-0250. […] IL-2 receptors expressed on CD4+ Tconv, CD8+T and NK cells are primarily dimeric IL-2Rs, comprising IL-2R6 and γc."}, "[2]": {"test_system": "Treg cells", "experiment": "Dose-response pharmacodynamics of Treg cells in mice after a single injection (Example 10)", "format": "in vivo, mouse", "experimental": "Following a single subcutaneous administration of vehicle (PBS) or P-0511 (1, 0.3, 0.1, or 0.03 mg/kg) to female Balb/C mice (n=5/group), peripheral blood was collected on day −2 as baseline, and post dose on days 3, 5, and 7. On day 7, mice were sacrificed, and spleens were harvested. Blood lymphocyte phenotyping, proliferation and expansion were measured by flow cytometry at each timepoint using fresh whole blood."}, "[3]": {"biological_target": "T1, IL-2Rβ and γc complex (Homo sapiens, UniProt P14784+P31785)", "T1 construct": "IL-2R6-ECD (NP_000869); γc-ECD (NP_000197)", "T1 sequence (P14784 27-240 limits assumed)": "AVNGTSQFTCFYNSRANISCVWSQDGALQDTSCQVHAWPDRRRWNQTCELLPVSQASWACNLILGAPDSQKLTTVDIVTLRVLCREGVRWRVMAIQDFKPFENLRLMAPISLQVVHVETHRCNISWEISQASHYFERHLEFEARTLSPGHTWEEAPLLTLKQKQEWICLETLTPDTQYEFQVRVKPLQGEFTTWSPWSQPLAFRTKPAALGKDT", "T1 sequence (P31785 23-262 limits assumed)": "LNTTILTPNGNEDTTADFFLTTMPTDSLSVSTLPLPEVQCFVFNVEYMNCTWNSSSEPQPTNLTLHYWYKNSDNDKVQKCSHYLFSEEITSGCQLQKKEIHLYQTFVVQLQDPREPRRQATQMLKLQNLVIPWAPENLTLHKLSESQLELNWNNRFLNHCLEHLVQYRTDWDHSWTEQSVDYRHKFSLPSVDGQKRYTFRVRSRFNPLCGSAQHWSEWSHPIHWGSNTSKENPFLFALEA", "experiment": "ELISA binding to IL-2Rβ and γc complex", "experimental": "Briefly, non-covalent complex of IL-2R6-ECD (NP_000869) and γc-ECD (NP_000197) through heterodimeric Fc chains was coated onto the wells of Nunc Maxisorp 96-well microplates at 2 μg/well. After overnight incubation at 4° C. and blocking with superblock (ThermoFisher), 3-fold serial dilutions of IL-2 Fc fusion proteins starting at either 100 or 270 nM were added to each well at 100 Following a one-hour incubation at room temperature, biotin mouse anti-human IL-2 Ab (BD BioSciences) at 1 μg/ml was added to each well followed by incubation with HRP-Avidin (ThermoFisher) at 1 μg/ml for 1 hour. Wells were thoroughly aspirated and washed three times with PBS/0.05% Tween-20 following each step. Finally, 100 TMB substrate was added to each well; the plate was developed at room temperature in the dark for 10 minutes, and 100 of stop solution (2N Sulfuric acid, Ricca Chemical) was added. Absorbance was determined at 450 nm; curves were fit using Prism software (Graph Pad) and illustrated in FIG. 11E."}, "[4]": {"experiment": "Aggregate content by size-exclusion chromatography after Protein A purification", "format": "physicochemical", "settings": "Isoleucine-125 constructs; after MabSelectSure", "experimental": "For affinity chromatography each supernatant was loaded on a HiTrap MabSelectSure column (CV=5 mL, GE Healthcare) equilibrated with 25 ml phosphate buffered saline, pH 7.2 (ThermoFisher). Unbound protein was removed by washing with 5 column volumes PBS, pH 7.2 and target protein was eluted with 25 mM sodium citrate, 25 mM sodium chloride, pH 3.2. Protein solution was neutralized by adding 3% of 1 M Tris pH 10.2. Ion exchange chromatography or mix-mode chromatography, including but not limited to CaptoMMC (GE Healthcare), ceramic hydroxyapatite, or ceramic fluoroapatite (Bio-Rad) was also utilized to polish the Protein A material as needed. Target protein was concentrated with an Amicon®Ultra-15 concentrator 10 KDa NMWC (Merck Millipore Ltd.)\nThe purity and molecular weight of the purified constructs were analyzed by SDS-PAGE with and in the absence of a reducing agent and staining with Coomassie (Imperial® Stain). The NuPAGE® Pre-Cast gel system (4-12% or 8-16% Bis-Tris, ThermoFisher) was used according to the manufacturer's instructions. The protein concentration of purified protein samples was determined by measuring the UV absorbance at 280 nm (Nanodrop Spectrophotometer, ThermoFisher) divided by the molar extinction coefficient calculated on the basis of the amino acid sequence. The aggregate content of the constructs was analyzed on an Agilent 1200 high-performance liquid chromatography (HPLC) system. Samples were injected onto an AdvanceBio size-exclusion column (300 Å, 4.6×150 mm, 2.7 μm, LC column, Agilent) using 150 mM sodium phosphate, pH 7.0 as the mobile phase at 25° C.\nS125I substitution was thus introduced into a number of IL-2 variant Fc fusion molecules. The constructs harboring Ile-125 substitution in IL-2 were expressed using the same vector and in the same culturing conditions as their Ser-125 counterparts and purified using MabSelectSure. The expression level in mg/L and purity assessed by SEC chromatography in aggregation % of exemplary molecules are summarized in Table 6. The two molecules in the same row of Table 6 share the same other amino acid substitution(s) and differ only at residue 125 with either serine or isoleucine. As an example, the SEC chromatogram and SDS-PAGE pictures of P-0447 (SEQ ID NO: 173) and its Ile-125 counterpart P-0511 (SEQ ID NO: 213) were further illustrated in FIGS. 1D and 1E."}},
  "data": [
    {"substance": "P-0511: IL-2 L19H/S125I/Q126E Fc fusion, SEQ ID NO: 213", "values": [
      {"measurement": "STAT5 phosphorylation activity in NK cells (in words)", "setting": "[1]", "result": "nearly completely abolished"},
      {"measurement": "proliferation of Treg cells (percentage of Ki67 positive cells)", "setting": "[2]; 0.03 mg/kg single s.c., Balb/C mice", "result": "minimal effect"},
      {"measurement": "Treg/Tconv ratio at peak, based on cell count", "setting": "[2]; 0.1 mg/kg", "result": 0.06},
      {"measurement": "Treg as percentage of total lymphocytes at the peak", "setting": "[2]; 0.1 mg/kg single dose", "result": 1.4, "unit": "%"},
      {"measurement": "Treg/Tconv ratio at peak, based on cell count", "setting": "[2]; 0.3 mg/kg", "result": 0.18},
      {"measurement": "Treg as percentage of total lymphocytes at the peak", "setting": "[2]; 0.3 mg/kg single dose", "result": 3.1, "unit": "%"},
      {"measurement": "Treg/Tconv ratio at peak, based on cell count", "setting": "[2]; 1 mg/kg", "result": 0.27},
      {"measurement": "Treg as percentage of total lymphocytes at the peak", "setting": "[2]; 1 mg/kg single dose", "result": 4.5, "unit": "%"},
      {"measurement": "proliferation of Treg cells (percentage of Ki67 positive cells)", "setting": "[2]; 1, 0.3, or 0.1 mg/kg single s.c., Balb/C mice", "result": "dose-dependent increases"},
      {"measurement": "expression of Treg functional markers CD25 and FoxP3 (MFI)", "setting": "[2]; single s.c. dose, Balb/C mice", "result": "increased dose-dependently"},
      {"measurement": "binding to IL-2 dimeric receptor complex, EC50", "setting": "[3]", "result": "did not show appreciable binding"},
      {"measurement": "Aggregation % (SEC)", "setting": "[4]", "result": 0.7, "unit": "%"}
    ]}
  ]
}
